In patent US20070254907A1, “COMPOSITIONS AND METHODS FOR CONTROLLING INFESTATION” (HATCHTECH PTY LTD, priority 2003, published 2007):
Entries after “also recorded” stand apart in the source; their conditions may differ. Where two headings read alike, the source gives them in different places.

Legend:
Plutella xylostella eggs [1] = experiment: Reversal of inhibition of Plutella egg hatching by added FeSO4; type: in vivo
Protocol: (§1) Within 24 hours of collection the following experimental design was chosen. Batches of eggs were exposed to 10 mM 6,6′-dimethyl-2,2′-dipyridyl for 2 seconds while additional batches of eggs were exposed to the solvent only (Methanol) for 2 seconds. All batches of eggs were allowed to air dry for 20 minutes at room temperature. The eggs were then given a 2 second exposure to FeSO4 at either 10, 5 or 1 mM, air dried and put in the incubator at 24° C. and allowed to hatch over the next 6 days. In addition, a positive control of 10 mM 6,6′-dimethyl-2,2′-dipyridyl was set up in which eggs were exposed to this compound for 2 seconds, air dried and placed in the incubator.
as §1, with “10 mM 5,5′-dimethyl-2,2′-dipyridyl for 2” for “10 mM 6,6′-dimethyl-2,2′-dipyridyl for 2”, “FeSO4 at 10, 5” for “FeSO4 at either 10, 5”, “put in an incubator at” for “put in the incubator at”, “of 10 mM, 5,5′-dimethyl-2,2′-dipyridyl was set” for “of 10 mM 6,6′-dimethyl-2,2′-dipyridyl was set”

B. ovis eggs = experiment: Egg hatching in Bovicola ovis; type: in vivo; conditions: 10 mM; for Number hatched in different replicates: 10 eggs per replicate; for % Inhibition: in comparison to the controls; for Number unhatched: per replicate
Protocol: B. ovis eggs were collected from the wool of sheep that were infested with this parasite. The eggs were collected using forceps and with the aid of a dissecting microscope and placed in 24 well tissue culture plates in duplicate lots of 10 eggs per replicate. The eggs were then exposed to either methanol alone (control) or the test compounds for either 10 minutes or 1 minute before being removed from the wells and placed into individual glass vials containing a diet at the base of the tube. The tubes were placed in plastic containers containing a salt solution (to keep humidity constant at 68%) and the containers maintained at a temperature 32° C. The eggs were monitored for hatching over the following 12 days and % hatch inhibition determined in comparison to the controls.

[2] = system: Lice (L) and Plutella (P) eggs; conditions: Lice (L) and Plutella (P)
lice eggs = experiment: whole plant or invertebrate; type: in vivo; conditions: for H (number of eggs successfully hatched) / Ph (number of eggs partly hatched): per replicate, concentration not given
Plutella xylostella eggs [3] = experiment: whole plant or invertebrate; type: in vivo
Protocol: The ovicidal efficacy of 2-acetyl-1-tetralone was also tested against Plutella eggs.

[4] = system: Helicoverpa armigera eggs; experiment: Egg hatching of Helicoverpa armigera
[5] = 10 mM chelator followed by 2 second exposure to 1 mM FeSO4
[6] = 10 mM chelator followed by 2 second exposure to 5 mM FeSO4
[7] = 10 mM chelator followed by 2 second exposure to 10 mM FeSO4
[8] = 10 mM chelator followed by 2 second exposure to MEOH
[9] = 10 mM chelator, 2 s, (+ve) control without second exposure
[10] = 10 and 1 mM, listed as 6,6′dimethyl-2,2′dipyridyl
[11] = Table 9, 0.001 mM, dipped 2-10 s, day 6 post laying
[12] = Table 9, 0.01 mM, dipped 2-10 s, day 6 post laying
[13] = Table 9, 0.1 mM, dipped 2-10 s, day 6 post laying
[14] = Table 9, 1 mM, dipped 2-10 s, day 6 post laying
[15] = Table 9, 10 mM, dipped 2-10 s, day 6 post laying
[16] = Table 10, eggs laid on cloth, 0.01 mM
[17] = Table 10, eggs laid on cloth, 0.1 mM
[18] = Table 10, eggs laid on cloth, 1 mM
[19] = Table 10, eggs laid on cloth, 10 mM
[20] = Table 11, eggs laid on parafilm, 0.01 mM
[21] = Table 11, eggs laid on parafilm, 0.1 mM
[22] = Table 11, eggs laid on parafilm, 1 mM
[23] = Table 11, eggs laid on parafilm, 10 mM

Cc1cccc(-c2cccc(C)n2)n1 [6,6′-dimethyl-2,2′-dipyridyl]
Number hatched (Plutella xylostella eggs [1]; [5]): 33
Number unhatched (Plutella xylostella eggs [1]; [5]): 1
% Inhibition (Plutella xylostella eggs [1]; 10 mM chelator followed by 2 second exposure to 1 mM FeSO4, relative to FeSO4 controls): 3%
Number hatched (Plutella xylostella eggs [1]; [6]): 25
Number unhatched (Plutella xylostella eggs [1]; [6]): 0
% Inhibition (Plutella xylostella eggs [1]; 10 mM chelator followed by 2 second exposure to 5 mM FeSO4, relative to FeSO4 controls): 0%
Number hatched (Plutella xylostella eggs [1]; [7]): 12
Number unhatched (Plutella xylostella eggs [1]; [7]): 19
% Inhibition (Plutella xylostella eggs [1]; 10 mM chelator followed by 2 second exposure to 10 mM FeSO4, relative to FeSO4 controls): 38%
% Inhibition (Plutella xylostella eggs [1]; [8]): 90%
Number hatched (Plutella xylostella eggs [1]; [8]): 3
Number unhatched (Plutella xylostella eggs [1]; [8]): 28
% Inhibition (Plutella xylostella eggs [1]; [9]): 100%
Number hatched (Plutella xylostella eggs [1]; [9]): 0
Number unhatched (Plutella xylostella eggs [1]; [9]): 44
effect of added Fe in FeSO4 on the chelator's inhibition of egg hatching (Plutella xylostella eggs [1]; 10 mM chelator, then FeSO4 10, 5 or 1 mM): able to reverse the effects
inhibition of egg hatching after MeOH alone post exposure (Plutella xylostella eggs [1]; 10 mM chelator, then MeOH): significant degree of inhibition of egg hatching
egg hatching in the louse (B. ovis eggs; 10 or 1 minute exposure): completely inhibited
Number hatched in different replicates (B. ovis eggs; 1 minute exposure): Rep 1. 0; also recorded: Rep 2. 0
% Inhibition (B. ovis eggs; 1 minute exposure): 100%
Number unhatched (B. ovis eggs; 1 minute exposure): 10
Number hatched in different replicates (B. ovis eggs; 10 minute exposure): Rep 1. 0; also recorded: Rep 2. 0
% Inhibition (B. ovis eggs; 10 minute exposure): 100%
Number unhatched (B. ovis eggs; 10 minute exposure): 10
Ovicidal activity % ([2]; 0.1 mM): 0.00%
Ovicidal activity % ([2]; 10 mM): 100.00%
Activity class 0 = inactive 1 = low 2 = med 3 = high ([2]; listed as of 0.1 mM): 2 (a pLD50 value between 3 and 4 is considered moderately active (Class 2))
Activity class 0 = inactive 1 = low 2 = med 3 = high ([2]; listed as of 10 mM): 2 (a pLD50 value between 3 and 4 is considered moderately active (Class 2))
lice egg hatching (lice eggs; all time points examined (24-120 hr post egg laying)): completely inhibited
H (number of eggs successfully hatched) (lice eggs; treated 24 hr post egg laying): 0
Ph (number of eggs partly hatched) (lice eggs; treated 24 hr post egg laying): 0
H (number of eggs successfully hatched) (lice eggs; treated 48 hr post egg laying): 0
Ph (number of eggs partly hatched) (lice eggs; treated 48 hr post egg laying): 0
H (number of eggs successfully hatched) (lice eggs; treated 72 hr post egg laying): 0
Ph (number of eggs partly hatched) (lice eggs; treated 72 hr post egg laying): 0
H (number of eggs successfully hatched) (lice eggs; treated 96 hr post egg laying): 0
Ph (number of eggs partly hatched) (lice eggs; treated 96 hr post egg laying): 0
H (number of eggs successfully hatched) (lice eggs; treated 120 hr post egg laying): 0
Ph (number of eggs partly hatched) (lice eggs; treated 120 hr post egg laying): 0
effect on egg hatching of Plutella xylostella (words) (Plutella xylostella eggs [3]; 0.1 and 0.01 mM): no observable effects on egg hatching
effect on egg hatching of Plutella xylostella (words) (Plutella xylostella eggs [3]; 10 and 1 mM, listed as 6,6′-dimethyl-2,2′dipyridyl): effective at inhibiting egg hatching
effect on egg hatching of Plutella xylostella (words) (Plutella xylostella eggs [3]; [10]): strong ovicidal effects
Ovicidal activity % (Plutella xylostella eggs [3]; Plutella (P), 1 mM): 100.00%
Activity class 0 = inactive 1 = low 2 = med 3 = high (Plutella xylostella eggs [3]; Plutella (P), listed as of 1 mM): 2 (a pLD50 value between 3 and 4 is considered moderately active (Class 2))
Number hatched (Plutella xylostella eggs [3]; [11]): 11
Number unhatched (Plutella xylostella eggs [3]; [11]): 6
% Inhibition (Plutella xylostella eggs [3]; Table 9, 0.001 mM, relative to control (100% MeOH)): 0%
Number hatched (Plutella xylostella eggs [3]; [12]): 13
Number unhatched (Plutella xylostella eggs [3]; [12]): 7
% Inhibition (Plutella xylostella eggs [3]; Table 9, 0.01 mM, relative to control (100% MeOH)): 0%
Number hatched (Plutella xylostella eggs [3]; [13]): 23
Number unhatched (Plutella xylostella eggs [3]; [13]): 29
% Inhibition (Plutella xylostella eggs [3]; Table 9, 0.1 mM, relative to control (100% MeOH)): 0%
Number hatched (Plutella xylostella eggs [3]; [14]): 0
Number unhatched (Plutella xylostella eggs [3]; [14]): 26
% Inhibition (Plutella xylostella eggs [3]; Table 9, 1 mM, relative to control (100% MeOH)): 100%
Number hatched (Plutella xylostella eggs [3]; [15]): 0
Number unhatched (Plutella xylostella eggs [3]; [15]): 79
% Inhibition (Plutella xylostella eggs [3]; Table 9, 10 mM, relative to control (100% MeOH)): 100%
Number hatched (Plutella xylostella eggs [3]; [16]): 23
Number unhatched (Plutella xylostella eggs [3]; [16]): 4
% Inhibition (Plutella xylostella eggs [3]; Table 10, eggs laid on cloth, 0.01 mM, relative to controls): 12%
Number hatched (Plutella xylostella eggs [3]; [17]): 49
Number unhatched (Plutella xylostella eggs [3]; [17]): 0
% Inhibition (Plutella xylostella eggs [3]; Table 10, eggs laid on cloth, 0.1 mM, relative to controls): 0%
Number hatched (Plutella xylostella eggs [3]; [18]): 0
Number unhatched (Plutella xylostella eggs [3]; [18]): 23
% Inhibition (Plutella xylostella eggs [3]; Table 10, eggs laid on cloth, 1 mM, relative to controls): 100%
Number hatched (Plutella xylostella eggs [3]; [19]): 0
Number unhatched (Plutella xylostella eggs [3]; [19]): 53
% Inhibition (Plutella xylostella eggs [3]; Table 10, eggs laid on cloth, 10 mM, relative to controls): 100%
Number hatched (Plutella xylostella eggs [3]; [20]): 92
Number unhatched (Plutella xylostella eggs [3]; [20]): 1
% Inhibition (Plutella xylostella eggs [3]; Table 11, eggs laid on parafilm, 0.01 mM, relative to controls): 0%
Number hatched (Plutella xylostella eggs [3]; [21]): 65
Number unhatched (Plutella xylostella eggs [3]; [21]): 11
% Inhibition (Plutella xylostella eggs [3]; Table 11, eggs laid on parafilm, 0.1 mM, relative to controls): 7%
Number hatched (Plutella xylostella eggs [3]; [22]): 0
Number unhatched (Plutella xylostella eggs [3]; [22]): 63
% Inhibition (Plutella xylostella eggs [3]; Table 11, eggs laid on parafilm, 1 mM, relative to controls): 100%
Number hatched (Plutella xylostella eggs [3]; [23]): 0
Number unhatched (Plutella xylostella eggs [3]; [23]): 106
% Inhibition (Plutella xylostella eggs [3]; Table 11, eggs laid on parafilm, 10 mM, relative to controls): 100%
effect on egg hatching of Helicoverpa armigera (words) ([4]; 0.1 mM): no inhibition of egg hatching was observed
effect on egg hatching of Helicoverpa armigera (words) ([4]; 10 and 1 mM): significantly inhibit the egg hatching
effect on egg hatching of Helicoverpa armigera (words) [4, 10]: significantly inhibit egg hatching
% Inhibition ([4]; Table 12, 0.001 mM, relative to control (100% MeOH)): 0%
% Inhibition ([4]; Table 12, 0.01 mM, relative to control (100% MeOH)): 0%
% Inhibition ([4]; Table 12, 0.1 mM, relative to control (100% MeOH)): 0%
Number hatched ([4]; Table 12, 1 mM): 4
Number unhatched ([4]; Table 12, 1 mM): 140
% Inhibition ([4]; Table 12, 1 mM, relative to control (100% MeOH)): 97%
Number hatched ([4]; Table 12, 10 mM): 7
Number unhatched ([4]; Table 12, 10 mM): 98
% Inhibition ([4]; Table 12, 10 mM, relative to control (100% MeOH)): 94%
Number hatched ([4]; Table 13, 0.1 mM): 70
Number unhatched ([4]; Table 13, 0.1 mM): 0
% Inhibition ([4]; Table 13, 0.1 mM, relative to the control (100% MeOH)): 0%
Number hatched ([4]; Table 13, 1 mM): 2
Number unhatched ([4]; Table 13, 1 mM): 61
% Inhibition ([4]; Table 13, 1 mM, relative to the control (100% MeOH)): 97%
Number hatched ([4]; Table 13, 10 mM): 3
Number unhatched ([4]; Table 13, 10 mM): 48
% Inhibition ([4]; Table 13, 10 mM, relative to the control (100% MeOH)): 94%
effect on egg hatching of Helicoverpa armigera (words) ([4]; concentrations below 1 mM): No inhibition was recorded
